From patent US20100168146A1, “Composition Comprising (R)-Spiro[L-Azabicyclo[2.2.2]Octane-3,2'(3'H)-Furo[2,3-B]Pyridine (AZD0328) and its Use in the Treatment of Alzheimer's Disease, ADHD or Cognitive Dysfunction” (priority 2008, published 2010)

Assays:
rats = assay: Modified Irwin screen; type: in vivo; settings: Wistar rat, oral gavage, up to 4 h postdose
Procedure: The effects of AZD0328 were assessed in the modified Irwin screen, a behavioural, neurological and overt toxicity scoring protocol battery designed to detect a wide range of side effects (Table 3). The findings in the Irwin screen serve as a gross indication of CNS-mediated effects.

ferrets = assay: Emetic potential; type: in vivo; settings: ferret
Procedure: The emetic potential of AZD0328 was investigated in ferrets (n=6-8/dose) following a single oral dose of vehicle or AZD0328 (Table 3). Videotape recordings were used for observation of the animals up to 4 h after dose for quantitation and timing of emetic behaviours, characterised as retches (abdominal contractions), vomits and wet-dog shakes.

Pgp transporter = Pgp transporter (Homo sapiens, UniProt P08183); assay: Digoxin transport, cell-based assay; type: in vitro ADME
Text: (§1) The 50% bioavailability of AZD0328 in human was conservatively selected based on the observations from rat, dog and monkey.

[1] = molecular target: α7 receptor binding sites (Rattus norvegicus, UniProt Q05941); type: in vivo; settings: sc, 2-4 h
guinea pigs = assay: Cardiac repolarisation in anesthetised guinea pig (MAP); type: in vivo; settings: highest dose, total plasma concentration 8.5 μM
Procedure: Effects of AZD0328 on ventricular repolarisation and intracardiac conduction were investigated in 6 anesthetised and ventilated guinea pigs (Table 3). For the electrophysiological characterisation, monophasic action potentia MAP duration at 90% repolarisation (MAPD90), ventricular conduction velocity (MAP rise time), and atrioventricular (AV) conduction time were recorded during cardiac pacing. AZD0328 had dose-dependent effects on the electrophysiological activities in the guinea pig heart. At the highest dose, resulting in a total plasma concentration of 8.5 μM, MAPD90 and AV conduction time were prolonged by 20% and 13%, respectively. It is concluded that AZD0328 delayed ventricular repolarisation in the anesthetised guinea pig by 10% at a total plasma concentration of 2.4 μM.

marmoset monkeys = assay: Behavioral effects / tolerability; type: in vivo; settings: im, first five minutes after administration
Procedure: Prior to testing its effects on cognitive task performance in marmoset monkeys, the tolerability of AZD0328 was assessed. (Table 3). Behaviours noted in individual marmosets during the five minutes immediately following drug administration were salivation, vomiting, scratching, defecation and increased activity.

[2] = Predicted human PK / exposure (allometric scaling of rat and monkey data)
Procedure: as §1
Given the findings in the 1 month repeated dose toxicology studies in the rats, it is reasonable to set human systemic exposure limits following single dose administration equal to the exposure observed at NOAEL for renal tubule vacuolation. The corresponding human equivalent dose, based on the FDA guidance (via allometric scaling of body surface area) is, 0.35 mg/kg. A dose of 0.03 mg/day is proposed as a starting dose.

5-HT3A/B receptors = molecular target: T1, 5-HT3A/B receptors (Homo sapiens, UniProt O95264+P46098); assay: Functional potency at recombinant human receptors in vitro; type: cell-based
T1 construct: expressed in transfected cells
T1 sequence (P46098 24-478): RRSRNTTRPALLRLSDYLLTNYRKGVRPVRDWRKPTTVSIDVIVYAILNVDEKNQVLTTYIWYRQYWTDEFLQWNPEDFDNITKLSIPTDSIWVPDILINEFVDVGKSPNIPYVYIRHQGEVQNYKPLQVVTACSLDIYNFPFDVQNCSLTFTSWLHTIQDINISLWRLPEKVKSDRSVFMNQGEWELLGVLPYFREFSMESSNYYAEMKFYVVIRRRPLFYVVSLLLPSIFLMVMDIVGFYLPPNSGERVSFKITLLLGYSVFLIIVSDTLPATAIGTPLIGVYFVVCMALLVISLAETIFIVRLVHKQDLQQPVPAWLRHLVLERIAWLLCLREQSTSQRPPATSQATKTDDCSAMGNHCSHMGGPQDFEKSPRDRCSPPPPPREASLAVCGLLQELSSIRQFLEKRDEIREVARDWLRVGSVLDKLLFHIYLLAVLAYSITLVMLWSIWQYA
T1 sequence (O95264 22-441): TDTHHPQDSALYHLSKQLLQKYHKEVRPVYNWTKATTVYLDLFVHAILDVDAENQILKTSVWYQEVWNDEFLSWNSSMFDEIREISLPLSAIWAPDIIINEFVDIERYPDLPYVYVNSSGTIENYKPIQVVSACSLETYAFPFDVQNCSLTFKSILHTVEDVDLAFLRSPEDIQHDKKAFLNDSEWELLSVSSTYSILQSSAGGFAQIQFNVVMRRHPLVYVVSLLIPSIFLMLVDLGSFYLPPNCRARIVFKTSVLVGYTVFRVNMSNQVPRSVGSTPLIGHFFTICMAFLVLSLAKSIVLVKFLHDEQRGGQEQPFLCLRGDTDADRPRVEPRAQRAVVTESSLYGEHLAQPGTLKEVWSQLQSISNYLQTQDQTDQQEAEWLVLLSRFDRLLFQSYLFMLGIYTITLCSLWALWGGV

[3] = tested on: fimbria formix transected rats; assay: Fimbria formix transected rat model (DNMTP, DRL, LTP); type: in vivo
Procedure: Previously, AZD0328 has been described, for example in U.S. Pat. No. 6,110,914 and counterpart worldwide patents, as an α7 agonist. In a widely used model of cognitive dysfunction using fimbria formix transected rats challenged to perform Delayed Non-Match to Position or Differential Reinforcement of Low Rates of Responding tasks, agonistic doses of 1 mg per kg and higher of AZD0328 effectively compensated for the acetylcholine deficiencies of these animals. These doses were associated with plasma concentrations at which AZD0328 acts as an agonist at α7 receptors in vitro. However, lower concentrations were ineffective in these model systems.
The potency of AZD0328 to activate α7 receptors in these in vitro preparations was in the micromolar range. […] For example, 1 or 3 mg/kg of AZD0328 reversed deficits in hippocampal long-term potentiation or response accuracy in two different cognitive tests in fimbria-formix lesioned animals (delayed non-match to position and differential reinforcement of low rates of responding). The minimum effective dose of 1 mg per kg necessary to reverse deficits in the rat fimbria formix model produced plasma concentrations in the range 0.29-1.4 μM in the rat, consistent with the range of concentrations required to activate α7 responses in vitro.

Sequence of Pgp transporter (P08183 whole entry): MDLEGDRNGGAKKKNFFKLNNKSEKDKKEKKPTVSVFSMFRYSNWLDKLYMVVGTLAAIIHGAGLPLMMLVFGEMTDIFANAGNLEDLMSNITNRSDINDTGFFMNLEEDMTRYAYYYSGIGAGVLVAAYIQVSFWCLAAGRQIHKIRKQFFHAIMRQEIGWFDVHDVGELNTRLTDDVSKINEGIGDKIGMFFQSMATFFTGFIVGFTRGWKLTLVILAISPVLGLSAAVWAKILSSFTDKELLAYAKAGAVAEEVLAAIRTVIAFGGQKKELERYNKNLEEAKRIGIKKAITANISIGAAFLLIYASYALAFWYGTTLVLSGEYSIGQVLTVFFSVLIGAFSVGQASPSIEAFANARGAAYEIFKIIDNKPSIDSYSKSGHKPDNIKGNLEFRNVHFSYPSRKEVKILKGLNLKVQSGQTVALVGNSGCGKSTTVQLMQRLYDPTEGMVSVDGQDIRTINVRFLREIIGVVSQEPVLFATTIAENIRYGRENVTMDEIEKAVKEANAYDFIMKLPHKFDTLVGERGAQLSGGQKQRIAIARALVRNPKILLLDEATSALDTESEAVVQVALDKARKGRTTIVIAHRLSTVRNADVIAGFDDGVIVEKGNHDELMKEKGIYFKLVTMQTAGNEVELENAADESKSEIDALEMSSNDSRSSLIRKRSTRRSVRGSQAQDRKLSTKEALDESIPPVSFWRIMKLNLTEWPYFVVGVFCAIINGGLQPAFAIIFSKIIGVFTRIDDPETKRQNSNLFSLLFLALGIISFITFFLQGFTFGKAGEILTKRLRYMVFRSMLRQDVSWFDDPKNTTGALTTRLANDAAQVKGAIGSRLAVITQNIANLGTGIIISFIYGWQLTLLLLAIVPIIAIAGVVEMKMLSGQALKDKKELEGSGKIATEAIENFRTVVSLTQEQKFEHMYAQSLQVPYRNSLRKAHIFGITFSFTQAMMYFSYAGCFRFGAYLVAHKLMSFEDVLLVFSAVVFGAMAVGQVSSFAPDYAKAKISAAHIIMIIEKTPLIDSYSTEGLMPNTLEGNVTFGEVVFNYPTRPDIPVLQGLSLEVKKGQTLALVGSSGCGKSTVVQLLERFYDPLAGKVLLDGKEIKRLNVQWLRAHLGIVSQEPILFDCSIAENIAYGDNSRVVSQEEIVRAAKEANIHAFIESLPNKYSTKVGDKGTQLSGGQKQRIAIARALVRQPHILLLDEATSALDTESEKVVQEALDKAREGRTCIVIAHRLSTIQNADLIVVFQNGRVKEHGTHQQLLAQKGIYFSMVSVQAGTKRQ
Sequence of α7 receptor binding sites (Q05941 23-502): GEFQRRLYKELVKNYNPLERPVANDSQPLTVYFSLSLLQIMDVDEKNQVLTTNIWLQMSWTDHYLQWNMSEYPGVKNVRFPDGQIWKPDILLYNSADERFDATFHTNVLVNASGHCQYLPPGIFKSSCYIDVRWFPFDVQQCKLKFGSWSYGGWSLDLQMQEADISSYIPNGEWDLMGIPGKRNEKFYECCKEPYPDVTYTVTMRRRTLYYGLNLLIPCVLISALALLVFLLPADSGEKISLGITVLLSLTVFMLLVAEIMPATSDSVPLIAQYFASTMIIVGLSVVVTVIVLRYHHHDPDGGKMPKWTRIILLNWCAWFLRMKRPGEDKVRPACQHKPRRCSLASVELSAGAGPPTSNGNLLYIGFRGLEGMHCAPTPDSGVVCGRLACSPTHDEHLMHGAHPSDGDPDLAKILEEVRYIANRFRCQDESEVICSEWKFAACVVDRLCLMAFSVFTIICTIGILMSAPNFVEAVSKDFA

c1cnc2c(c1)C[C@@]1(CN3CCC1CC3)O2 [AZD0328, (R)-Spiro[1-azabicyclo[2.2.2]octane-3,2′(3′H)-furo[2,3-b]pyridine]]
Dose with sedation (rats): 129.8 mg/kg up to 4 h postdose.
Emetic responses (ferrets; oral gavage 5.6, 16.9 or 56.2 mg/kg): retching, vomiting and wet-dog shakes at all doses
Dose with statistically significant retches vs vehicle (ferrets; single oral dose): 5600 µg/kg
Pgp mediated digoxin transport (Pgp transporter): did not significantly inhibit
Active dose, [125I]-α-bungarotoxin binding ex vivo increased receptor number [1]: 0.1 µg/kg
AV conduction time prolongation (guinea pigs): 13%
MAPD90 prolongation (guinea pigs): 20%
Doses with salivation, vomiting, scratching, defecation and increased activity (marmoset monkeys): administration with 0.03-3 mg/kg
Predicted free human therapeutic plasma level [2]: 0.5 to 1.7 nM
Human equivalent dose of the rat NOAEL (allometric scaling of body surface area) ([2]; NOAEL for renal tubule vacuolation): 350 µg/kg
Bioavailability in human, conservatively selected ([2]; human): 50%
Functional potency α7 versus 5-HT3A/B (5-HT3A/B receptors): equipotent
Minimum effective dose [3]: 1 mg per kg
